PubChem BioAssay (NCI)
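GI50: concentration for 50% inhibition of growth. TGI: total growth inhibition.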

Assays:
Assay in all cases: NCI anticancer screen, dose series, 384-well format
[1] = tested on: NCI/ADR-RES ovarian
[2] = tested on: HOP-92 NSCLC
[3] = tested on: UACC-257 melanoma
[4] = tested on: BT-549 breast
[5] = tested on: 786-0 renal
[6] = tested on: CCRF-CEM leukemia
[7] = tested on: HCC-2998 colon
[8] = tested on: OVCAR-8 ovarian
[9] = tested on: COLO 205 colon
[10] = tested on: NCI-H226 lung
[11] = tested on: PC-3 prostate
[12] = tested on: M14 melanoma
[13] = tested on: DU-145 prostate
[14] = tested on: OVCAR-4 ovarian
[15] = tested on: HCT-15 colon
[16] = tested on: LOX IMVI melanoma
[17] = tested on: SF-268 CNS
[18] = tested on: OVCAR-3 ovarian
[19] = tested on: SF-295 CNS
[20] = tested on: MDA-MB-435 melanoma
[21] = tested on: SNB-19 CNS
[22] = tested on: HL-60(TB) leukemia
[23] = tested on: UO-31 renal
[24] = tested on: HOP-62 NSCLC
[25] = tested on: U251 glioblastoma
[26] = tested on: NCI-H322M lung
[27] = tested on: ACHN renal
[28] = tested on: SN12C renal
[29] = tested on: HCT-116 colon
[30] = tested on: MDA-MB-231 breast
[31] = tested on: NCI-H460 NSCLC
[32] = tested on: IGROV1 ovarian
[33] = tested on: UACC-62 melanoma
[34] = tested on: SK-OV-3 ovarian
[35] = tested on: SF-539 CNS
[36] = tested on: OVCAR-5 ovarian
[37] = tested on: MALME-3M melanoma
[38] = tested on: MOLT-4 leukemia
[39] = tested on: A549 NSCLC
[40] = tested on: RPMI-8226 leukemia
[41] = tested on: K-562 leukemia
[42] = tested on: TK-10 renal
[43] = tested on: SR leukemia
[44] = tested on: CAKI-1 renal
[45] = tested on: NCI-H522 lung
[46] = tested on: SK-MEL-28 melanoma
[47] = tested on: SK-MEL-2 melanoma
[48] = tested on: MDA-MB-468 breast
[49] = tested on: T-47D breast
[50] = tested on: RXF 393 renal
[51] = tested on: A498 renal
[52] = tested on: MCF7 breast
[53] = tested on: HT29 colon
[54] = tested on: SW-620 colon
[55] = tested on: NCI-H23 lung
[56] = tested on: SK-MEL-5 melanoma
[57] = tested on: KM12 colon

SMILES: NCCCC[C@@H]1NC(=O)[C@H](CC(=O)O)NC(=O)CNC(=O)[C@H](CCCN=C(N)N)NC(=O)[C@@H](N)CSSC[C@@H](C(=O)O)NC(=O)[C@H](CC(=O)O)NC(=O)[C@@H]2CCCN2C(=O)CNC1=O
- GI50 [1]: > 100 µM
- TGI [1]: > 100 µM
- GI50 [2]: > 100 µM
- TGI [2]: > 100 µM
- GI50 [3]: > 100 µM
- TGI [3]: > 100 µM
- GI50 [4]: > 100 µM
- TGI [4]: > 100 µM
- GI50 [5]: > 100 µM
- TGI [5]: > 100 µM
- GI50 [6]: > 100 µM
- TGI [6]: > 100 µM
- GI50 [7]: > 100 µM
- TGI [7]: > 100 µM
- GI50 [8]: > 100 µM
- TGI [8]: > 100 µM
- GI50 [9]: > 100 µM
- TGI [9]: > 100 µM
- GI50 [10]: > 100 µM
- TGI [10]: > 100 µM
- GI50 [11]: > 100 µM
- TGI [11]: > 100 µM
- GI50 [12]: > 100 µM
- TGI [12]: > 100 µM
- GI50 [13]: > 100 µM
- TGI [13]: > 100 µM
- GI50 [14]: > 100 µM
- TGI [14]: > 100 µM
- GI50 [15]: > 100 µM
- TGI [15]: > 100 µM
- GI50 [16]: > 100 µM
- TGI [16]: > 100 µM
- GI50 [17]: > 100 µM
- TGI [17]: > 100 µM
- GI50 [18]: > 100 µM
- TGI [18]: > 100 µM
- GI50 [19]: > 100 µM
- TGI [19]: > 100 µM
- GI50 [20]: > 100 µM
- TGI [20]: > 100 µM
- GI50 [21]: > 100 µM
- TGI [21]: > 100 µM
- GI50 [22]: > 100 µM
- TGI [22]: > 100 µM
- GI50 [23]: > 100 µM
- TGI [23]: > 100 µM
- GI50 [24]: > 100 µM
- TGI [24]: > 100 µM
- GI50 [25]: > 100 µM
- TGI [25]: > 100 µM
- GI50 [26]: > 100 µM
- TGI [26]: > 100 µM
- GI50 [27]: > 100 µM
- TGI [27]: > 100 µM
- GI50 [28]: > 100 µM
- TGI [28]: > 100 µM
- GI50 [29]: > 100 µM
- TGI [29]: > 100 µM
- GI50 [30]: > 100 µM
- TGI [30]: > 100 µM
- GI50 [31]: > 100 µM
- TGI [31]: > 100 µM
- GI50 [32]: > 100 µM
- TGI [32]: > 100 µM
- GI50 [33]: 80 µM
- TGI [33]: > 100 µM
- GI50 [34]: > 100 µM
- TGI [34]: > 100 µM
- GI50 [35]: > 100 µM
- TGI [35]: > 100 µM
- GI50 [36]: > 100 µM
- TGI [36]: > 100 µM
- GI50 [37]: 93.7 µM
- TGI [37]: > 100 µM
- GI50 [38]: > 100 µM
- TGI [38]: > 100 µM
- GI50 [39]: > 100 µM
- TGI [39]: > 100 µM
- GI50 [40]: > 100 µM
- TGI [40]: > 100 µM
- GI50 [41]: > 100 µM
- TGI [41]: > 100 µM
- GI50 [42]: > 100 µM
- TGI [42]: > 100 µM
- GI50 [43]: > 100 µM
- TGI [43]: > 100 µM
- GI50 [44]: > 100 µM
- TGI [44]: > 100 µM
- GI50 [45]: > 100 µM
- TGI [45]: > 100 µM
- GI50 [46]: > 100 µM
- TGI [46]: > 100 µM
- GI50 [47]: > 100 µM
- TGI [47]: > 100 µM
- GI50 [48]: > 100 µM
- TGI [48]: > 100 µM
- GI50 [49]: > 100 µM
- TGI [49]: > 100 µM
- GI50 [50]: > 100 µM
- TGI [50]: > 100 µM
- GI50 [51]: > 100 µM
- TGI [51]: > 100 µM
- GI50 [52]: > 100 µM
- TGI [52]: > 100 µM
- GI50 [53]: > 100 µM
- TGI [53]: > 100 µM
- GI50 [54]: > 100 µM
- TGI [54]: > 100 µM
- GI50 [55]: > 100 µM
- TGI [55]: > 100 µM
- GI50 [56]: > 100 µM
- TGI [56]: > 100 µM
- GI50 [57]: > 100 µM
- TGI [57]: > 100 µM
